Earlier results, collected in patent publication US20030129242A1, “Sterile filtered nanoparticulate formulations of budesonide and beclomethasone having tyloxapol as a surface stabilizer” (priority 2002, published 2003).

solubility in chloroform (chloroform)	solubility in ethanol (ethanol)	solubility in heptane (heptane)	solubility in water	SMILES
freely soluble	sparingly soluble	practically insoluble	practically insoluble	CCCC1O[C@@H]2C[C@H]3C4CCC5=CC(=O)C=CC5(C)[C@H]4[C@@H](O)CC3(C)C2(C(=O)CO)O1 (mixture of isomers) [Budesonide, (RS)-11,16, 17,21-Tetrahydroxy-pregna-1,4-diene-3,20-dione cyclic 16,17-acetal with butraldehyde]
			practically insoluble	CC1(C)O[C@@H]2C[C@H]3[C@@H]4C[C@H](F)C5=CC(=O)C=C[C@]5(C)[C@H]4[C@@H](O)C[C@]3(C)[C@]2(C(=O)CO)O1 [Flunisolide, 6α-fluoro-11β, 16α, 17,21-tetrahydroxy-pregna-1,4-diene-3,20-dione cyclic-16,17-acetal with acetone]
